Results on four compounds are retold here after US20260098863A1, “Tension-Activated Cell Tagging (TaCT)” (Emory University, priority 2022, published 2026).

Data set [1] has as its system NIH3T3 cells. Put plainly: cholesterol peeling strand dissociation from the cell. It is filed as cell-based. The settings on record: at 90 min after washing. On the procedure:
FIG. 5E provides a scheme showing the measurement of cholesterol peeling strand dissociation from the cell. NIH3T3 cells were incubated with 100 nM cholesterol peeling strand for 30 min and rinsed with PBS 3 times. Cells were divided into 6 aliquots and the remaining cholesterol strand in cells was measured every 30 min for 150 min by flow cytometry.
The normalized MFI from 2 replicates was plotted to show the dissociation of cholesterol strand over time in NIH3T3 cells.
(§1) After confirming that DNA peeling consistently maps molecular traction forces, cholesterol-DNA cell tagging for TaCT was investigated. Cholesterol-DNA is contemplated to partition into the plasma membrane of cells. […] The stability of TaCT tags was examined by incubating cholesterol-single stranded DNA with cells, washing, and measuring the loss of DNA as a function of time. Approximately 20-30% of the cholesterol-tethered DNA dissociated at 90 min. Accordingly, the cells were incubated on the surface for 1 h, which allowed for focal adhesion formation and TaCT method to proceed while limiting cholesterol dissociation.

Data set [2] concerns MEF cells. The data set can be described thus: concentration dependent incorporation of cholesterol peeling strand. It is filed as cell-based, mouse. The settings on record: 0, 1, 10, 100 nM, 1 h. On the procedure: FIG. 5C provides a scheme showing flow cytometry measurements of the concentration dependent incorporation of cholesterol peeling strand. MEF cells were incubated with 0, 1, 10, and 100 nM of cholesterol peeling strand for 1 h. The excess cholesterol peeling strand was washed away by spinning down in PBS three times, and the fluorescence intensity of cells was measured by a flow cytometer.
Linear relationship between cholesterol strand concentration and cell association was found, R2=0.977.
as §1

Data set [3] deals with mouse platelets. Put plainly: flow cytometry of DNA strand uptake in solution (cholesterol-DNA cell tagging). It is filed as cell-based. The settings on record: 50 nM, 30 min. On the procedure:
FIG. 5A illustrates a scheme for making flow cytometry measurements of the DNA strands uptake in solution. Mouse platelets were incubated with 50 nM of cholesterol peeling strand, TaCT duplex, load-bearing strand, TaCT duplex lacking RGD, and load-bearing strand lacking RGD in Tyrode's buffer for 30 min and spun down three times to wash away the excess oligos. The association was measured in both Atto647N and Cy3B channels by a flow cytometer.
as §1
A general note: In flow cytometry, cells or beads pass a laser one at a time.

Data set [4] deals with Rho-associated protein kinase (ROCK). The settings on record: cited from earlier work.
Data set [5] relates to MEF cells. Put plainly: Y27632 dose-dependent response of TaCT / tension signal in MEF cells. It is filed as cell-based, mouse. The settings on record: Y27632 pre-treatment. The text has this: To showcase that TaCT is an effective method to report cell receptor forces, a Rho-associated protein kinase (ROCK) inhibitor, Y27632, was used to disrupt the force transmission through cytoskeleton and measure the dose-dependent response in MEF cells. Y27632 inhibits ROCK kinases by competing with ATP binding, and further result in decreased myosin activity, destabilization of actin filament and abolished stress formation.

Data set [6] relates to mouse embryonic fibroblasts. The data set can be described thus: fluorescence microscopy of force-induced DNA duplex peeling under mouse embryonic fibroblasts. It is filed as cell-based. On the procedure: FIG. 4A illustrates Lat B inhibition of cells. […] RICM and Cy3B microscopy images were obtained from MEF cells incubated on peeling probe substrate after early Lat B treatment. Cells were treated with 20 μM Lat B after 15 min of plating on the substrate and imaged after 45 min of incubation.
FIG. 4B illustrates that when integrin force signals are already generated on peeling probe substrate, if the force transmission is terminated by late Lat B treatment, with additional BHQ2 peeling strand, the peeling probe can rehybridize to the duplex form. RICM and raw Cy3B microscopy images were obtained of MEF cells treated with 20 μM Lat B 50 min after seeding. The tension signal remained after 10 min of Lat B treatment and diminished after the addition of excess BHQ2 peeling strand.
The Cy3B signal was primarily localized to the cell edge, consistent with the distribution of focal adhesions (FAs) and accumulated as a function of time. The growth of Cy3B signal corresponded to the loss of Atto647N signal and confirmed the force-induced peeling mechanism. This mechanism can generate high quality maps of integrins forces independent of cholesterol conjugation to the probe. […] The observed tension signal colocalized with markers of FAs such as vinculin and phosphorylated focal adhesion kinase (FAK pY397), as well as actin stress fibers, confirming that forces were primarily transmitted by integrins within FAs. The peeling signal mirrors that of the turn-on tension gauge tether (TGT) probes but avoids termination of mechanotransduction which represents an advantage as a molecular force sensor. […] Maps accumulated mechanical events over time.

The test system of data set [7] is NIH3T3 cells. Put plainly: TaCT signal by flow cytometry, NIH3T3 cells on TaCT substrates. It is filed as cell-based. As for the experimental part: FIG. 1 provides a scheme of tension-activated cell tagging (TaCT). TaCT is based on 3′ and 5′ end mechanical pulling of a DNA duplex that leads to dehybridization. The stability of a dsDNA 24 mer was evaluated as a function of applied force generated using oxDNA simulation with a loading rate of 2.81×10^3 nm/s. The exponential moving average (EMA) indicates a 41 pN dehybridization transition. Flow cytometry histograms of NIH3T3 cells cultured on TaCT substrates as well as control surfaces with (−)cholesterol, (−)RGD, and (+)LatB were obtained.
NIH3T3 cells were seeded onto the TaCT substrates, allowed to spread, and collected by gentle scraping. The TaCT signal was then measured by flow cytometry. Probes lacking RGD, probes lacking cholesterol, as well as full TaCT probes cells treated with Lat B were used as negative controls. […] Background tagging of cells due to cell spreading and proximity to the surface leads to negligible TaCT signal.

For data set [8], the system named is mouse platelets. Put plainly: TaCT signal by flow cytometry, mouse platelets on TaCT surface. It is filed as cell-based. The settings on record: mouse platelets seeded 30 min. As for the experimental part:
Experiments were performed to determine whether this strategy works in primary cells. […] When mouse platelets were seeded onto the TaCT surface for 30 min, a loss of Atto647N signal was noted that was coupled with an increase in Cy3B. This confirmed that platelet integrin force transmission was sufficient to mediate DNA peeling with F greater than 41 pN.

Data set [9] in a line: FRET efficiency of surface-immobilized TaCT probes. It is filed as physicochemical. The text has this: In one example, TaCT probe is comprised of a load-bearing strand and a 24mer peeling strand. […] The loading-bearing strand also incorporated an internal Cy3B dye. The complementary peeling strand was designed to release once force (F) is greater than F peel. The peeling strand termini were labeled with Atto647N and cholesterol. The TaCT probes were annealed and immobilized on streptavidin-coated glass slides. At rest, the probe is in the dsDNA form where Cy3B and Atto647N form a FRET pair. When F is greater than F peel, the Atto647N strand peels and dissociates, while the Cy3B dye on the load bearing strand is de-quenched. […] The probe density was measured at 5200 molecules/μm^2 using a quantitative fluorescence calibration, which allows one to convert the Cy3B fluorescence signal to a % peel.

For another data set, the system named is MEF cells (WT and vin−). The data set can be described thus: TaCT on co-cultured WT and vinculin null MEF cells, flow cytometry. It is filed as cell-based, mouse. On the procedure: Vinculin is an adaptor protein that localizes to FAs linking the cytoskeleton to adhesion receptors and aids in FA maturation. TaCT was performed on these two cell types separately. The vin− cells were stained with cell tracker dye, CMFDA, before plating onto TaCT substrates. To ensure that the TaCT signal is not due to differential uptake, cholesterol uptake of WT and vin− cells was measured by flow cytometry in parallel with each TaCT assay. WT cells had larger spreading area and produced more tension signal compared to vin− cells in the Cy3B channel. […] Experiments were performed to determine whether this differential tension signal could be detected when the WT and vin− were co-cultured.

In the case of “Cholesterol-single stranded DNA conjugates: 24 mer peeling strand (SEQ ID NO: 2) labeled with Atto647N and cholesterol (DNA AGTTCTAAGACTTCAGAGCTCACT; DNA, backbone and methylation of C not given here; Atto647N and cholesterol on the termini)”, in the data set with NIH3T3 cells [1], the “cholesterol-tethered DNA dissociated” value is 20-30%. For the same compound, in the data set on MEF cells [2], the “membrane-association versus soluble conjugate concentration” value is given as “linearly proportional”. For the same compound, in the data set with mouse platelets [3], the “effectiveness at tagging cells compared to cholesterol-double stranded DNA conjugates” value is on record as “approximately 50 fold”.
Take `C[C@@H](N)[C@H]1CC[C@H](C(=O)Nc2ccncc2)CC1` [Y27632]: the “literature reported IC50 values” in data set [4] is on record as “hundreds of nM to low μM”. The IC50 in the data set with MEF cells [5] (Mus musculus, flow cytometry, ROCK inhibitor) is 773 nM. For the same compound, the Cy3B tension signal result with MEF cells [5] (microscopy) was “decreased Cy3B tension signal”.
Regarding `C/C1=C/C(=O)O[C@@H]2C[C@@H](CC[C@H](C)/C=C\CC1)O[C@@](O)([C@@H]1CSC(=O)N1)C2` [Lat B, Latrunculin B, reference compound], in data set [6] (Lat B 50 min after seeding (20 μM)), the tension signal changes entry is reported as “did not show tension signal changes”. In addition, in [6] (cells treated with Lat B (early, 20 μM)), the peeling signal result is listed as “significantly reduced peeling signal”. For the same compound, the force positive population in the data set on NIH3T3 cells [7] (NIH3T3 cells on full TaCT probes, cells treated with Lat B) is given as 3.5%.
Take “TaCT probe: DNA duplex: RGD/Cy3B/biotin load-bearing strand (SEQ ID NO: 1) and 24mer Atto647N, cholesterol peeling strand (SEQ ID NO: 2) (DNA 1 TTTTTTTTTTAGTGAGCTCTGAAGTCTTAGAACT; DNA 2 AGTTCTAAGACTTCAGAGCTCACT; DNA, backbone and methylation of C not given here; RGD and biotin at the two termini, internal Cy3B, peeling strand Atto647N and cholesterol)”: the force positive population in the data set with mouse platelets [8] is reported as 13.3%; in the data set on NIH3T3 cells [7] (NIH3T3 cells on substrate, 1 h, flow cytometry), 27.6%; in the data set with MEF cells (WT and vin−) (WT MEF cells in mixed population (co-culture)), 24.4%; in the data set with MEF cells (WT and vin−) (vin− MEF cells in mixed population (co-culture)), 5.2%. Moreover, the “mechanical events with F greater than 41 pN” value in data set [6] (equivalent of % peel and probe density) is “approximately 47 mechanical events/μm^2”. Also, the “probes peeled under each cell” value in data set [6] (quantitative microscopy analysis) stood at 0.9%. The “Cy3B signal enhancement upon peeling” value in [9] is “greater than 10 fold”. The compound also registered an FRET efficiency in data set [9] (Cy3B / Atto647N pair in dsDNA form) of 93.8%. For the same compound, the “Atto647N geometric mean fluorescence intensity (gMFI) increase compared to controls” value in the data set on NIH3T3 cells [7] (NIH3T3 cells incubated on TaCT) is “greater than 2 fold”. For the same compound, in the data set with NIH3T3 cells [7] (NIH3T3 cells incubated on TaCT compared to controls), the “Cy3B gMFI” value is “did not change”.

One may read the IC50 as the midpoint of a concentration-inhibition curve.
